In the supplement of paper PMC10307832:

How the values were obtained:
Test in all cases: relative viability (nuclei count vs DMSO), 5 days (fraction); higher = more cells survive
Sulindac + Navitoclax = compound: CC1=C(CC(=O)O)c2cc(F)ccc2/C1=C\c1ccc([S+](C)[O-])cc1 [Sulindac] + CC1(C)CCC(c2ccc(Cl)cc2)=C(CN2CCN(c3ccc(C(=O)NS(=O)(=O)c4ccc(N[C@H](CCN5CCOCC5)CSc5ccccc5)c(S(=O)(=O)C(F)(F)F)c4)cc3)CC2)C1 [Navitoclax] (partner 0.5 µM)
How it was run: (§1)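 Medians of duplicate plates are given as relative viability. That measure is the nuclei count in treated wells divided by the count in vehicle wells. Counts were taken on 4× images of lung cancer cell lines in 1536-well plates, 5 days after pin-tool dosing the day after seeding with one drug alone or a fixed anchor-drug dose plus five library-drug doses (not always all listed) in √10 steps.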

[1] = compound: O=c1[nH]cc(F)c(=O)[nH]1 [5-Fluorouracil] + CC1(C)CCC(c2ccc(Cl)cc2)=C(CN2CCN(c3ccc(C(=O)NS(=O)(=O)c4ccc(N[C@H](CCN5CCOCC5)CSc5ccccc5)c(S(=O)(=O)C(F)(F)F)c4)cc3)CC2)C1 [Navitoclax] (partner 0.5 µM)
How it was run: as §1

[2] = compound: O=c1[nH]cc(F)c(=O)[nH]1 [5-Fluorouracil] + Cc1cc(Nc2cc(N3CCN(C)CC3)nc(Sc3ccc(NC(=O)C4CC4)cc3)n2)n[nH]1 [Tozasertib] (partner 0.1 µM)
How it was run: as §1

[3] = compound: O=c1[nH]cc(F)c(=O)[nH]1 [5-Fluorouracil] + Cc1nc(NC(=O)N2CCC[C@H]2C(N)=O)sc1-c1ccnc(C(C)(C)C(F)(F)F)c1 [Alpelisib] (partner 2 µM)
How it was run: as §1

Cell Line	relative viability (Sulindac + Navitoclax; first compound 0.08 µM)	relative viability (Sulindac + Navitoclax; first compound 0.253 µM)	relative viability (Sulindac + Navitoclax; first compound 2.53 µM)	relative viability (Sulindac + Navitoclax; first compound 8 µM)	relative viability ([1]; first compound 0.02 µM)	relative viability ([1]; first compound 0.2 µM)	relative viability ([1]; first compound 0.6325 µM)	relative viability ([1]; first compound 2 µM)	relative viability ([2]; first compound 0.02 µM)	relative viability ([2]; first compound 0.2 µM)	relative viability ([2]; first compound 0.6325 µM)	relative viability ([2]; first compound 2 µM)	relative viability ([3]; first compound 0.02 µM)	relative viability ([3]; first compound 0.2 µM)	relative viability ([3]; first compound 0.6325 µM)	relative viability ([3]; first compound 2 µM)	relative viability (Sulindac + Navitoclax; first compound 0.8 µM)
NCI-H460	1.88	1.44	1.07	1.3	1.5	0.461	0.165	0.0655	0.459	0.13	0.106	0.0388	0.389	0.345	0.136	0.0626	–
NCI-H520	1.33	1.17	1.04	1.44	0.81	1.19	0.873	0.406	–	0.484	0.438	0.329	0.537	0.975	0.717	0.383	1.03
NCI-H596	0.901	0.953	1.02	1.13	0.804	0.753	0.566	0.347	0.939	0.845	0.479	0.364	0.357	0.449	0.497	0.381	0.812
NCI-H647	1.48	1.26	1.04	1.53	1.24	1.06	1.09	0.729	0.146	0.415	0.232	0.243	0.897	0.915	1.06	0.767	0.991
NCI-H727	0.32	0.385	0.416	0.433	0.369	0.41	0.527	0.315	0.659	0.646	0.691	0.571	0.545	0.582	0.641	0.577	0.381
NCI-H838	1.33	1.19	1.18	1.39	1.14	1.06	0.572	0.28	0.267	0.251	0.243	0.183	0.874	0.882	0.484	0.29	1.1
NCI-H1355	1.03	0.989	0.961	0.914	0.699	0.651	0.353	0.241	0.529	0.366	0.258	0.226	0.716	0.551	0.372	0.286	0.806
NCI-H1395	1.2	1.17	1.19	1.2	0.997	1.21	1.07	1.12	0.652	0.837	0.737	0.8	1.1	1.02	1.14	0.844	1.1
NCI-H1437	1.28	1.1	1.1	1.38	–	0.243	0.203	0.139	0.34	0.259	0.191	0.139	–	0.226	0.171	0.111	1.05
NCI-H1651	1.29	1.3	1.22	1.38	1.09	0.9	0.574	0.42	0.626	0.602	0.543	0.441	1.01	0.672	0.552	0.504	0.544
NCI-H1666	–	0.963	0.853	1.19	0.878	0.406	0.327	0.311	0.672	0.446	0.4	0.399	0.823	0.442	0.35	0.306	0.793
NCI-H1734	0.785	1.03	0.987	1.12	0.795	0.932	0.765	0.428	0.249	0.261	0.241	0.237	0.559	0.756	0.582	0.529	0.594
NCI-H1755	1.17	1.09	1.08	1.13	0.982	0.757	0.291	0.198	0.643	0.523	0.309	0.28	0.896	0.74	0.294	0.259	0.821
NCI-H1793	0.341	0.396	0.458	0.473	0.385	0.53	0.403	0.289	0.318	0.349	0.398	0.251	0.673	0.658	0.543	0.493	0.364
NCI-H1915	0.873	0.808	0.742	0.832	0.714	0.8	0.779	0.668	0.376	0.418	0.433	0.331	1.04	1.04	0.963	0.83	0.78
NCI-H1944	0.958	1	1.07	1.23	0.926	0.862	0.331	0.24	0.253	0.256	0.218	0.153	0.804	0.763	0.351	0.211	1
NCI-H1975	1.26	1.24	1.21	1.25	1.11	1.1	0.514	0.261	0.847	0.707	0.386	0.201	0.57	0.723	0.465	0.293	–
NCI-H1993	1.13	0.917	0.933	0.88	0.952	0.885	0.752	0.669	0.556	0.61	0.585	0.554	0.687	0.569	0.608	0.698	0.871
NCI-H2009	1.21	1.2	1.18	1.34	1.18	1.16	1.08	0.726	0.802	0.793	0.684	0.474	1.17	1.15	0.937	0.607	1.29
